Experimental data taken from patent publication US5532380A, “R,R,S,S-2-nitroimidazole derivatives” (Pola Chemical Industries, Inc., priority 1992, dated 1996).
Converted amounts (≈) assume the structure as drawn. Read-outs that look alike come from different tables or passages of the source.

Assays:
[1] = Dissolution test (solubility); format: physicochemical; settings: for solubilities compared with SR-RS racemate: water and physiological saline
Procedure: Solubilities of SS, RR, SR, and RS isomers and SR-RS racemate in water and physiological saline were determined.

[2] = system: breast carcinoma cell EMT6/KU; test: In vitro hypoxic cell sensitization effect (colony formation, gamma-ray); format: cell-based, Balb/c mouse; settings: 1 mM test compound, EMT6/KU hypoxic cells, ratio of radiation amounts without/with compound
Procedure: The degree of the hypoxic cell radiosensitization effects of optical isomers of the present invention as compared with the racemate was studied by the in vitro assay.
Specifically, the radiosensitization effects were investigated using breast carcinoma cell EMT6/KU derived from Balb/c mouse. A hypoxic cell suspension was prepared from MEM suspension-containing EMT6/KU cells at a concentration 4×10^5 cells/ml by adding the test compound to a final concentration of 1 mM, and gently shaking it under a nitrogen gas stream containing 5% CO2 for one hour at room temperature. Gamma-ray was irradiated to the suspension and a radiation-survival rate curve was developed by the colony formation method. The sensitization rate was determined from this radiation-survival rate curve by dividing (i) the amount of radiation which decreases the survival rate of the hypoxic cells by 1% when no test compound was added by (ii) the amount of radiation which decreases the survival rate of the hypoxic cells by 1% when the test compound was added.

[3] = system: EMT6/KU-cancerated Balb/c mouse; test: In vivo-in vitro hypoxic cell sensitization effect (EMT6/KU tumour-bearing mouse, gamma-ray, colony forming method); settings: 200 mg/kg; 20 Gy gamma-ray 30 minutes thereafter
Procedure: The degree of the hypoxic cell radiosensitization effects of optical isomers of the present invention in in vivo-in vitro system was investigated in the same manner using the racemate as a control. Specifically, the radiosensitization effects were investigated using EMT6/KU-cancerated Balb/c mouse. 200 mg/kg of each test compound was administered and 20 Gy gamma-ray was irradiated 30 minutes thereafter. Carcinoma was extracted and treated with trypsin to prepare a cell suspension. The survival rate was determined by the colony forming method. A physiological saline solution was administered to the control.

hypoxic cell = settings: cited from earlier work
[4] = Octanol-phosphate partition coefficient; format: physicochemical; settings: for logD at 24 h: octanol/0.2 m phosphate buffer; for partition coefficient: average of 1.4 times and 0.7 times; for partition coefficient / partition coefficient at 0.7 times the solubility in octanol / partition coefficient at 1.4 times the solubility in octanol: 1440 min; for partition coefficient at 0.7 times the solubility in octanol / partition coefficient at 1.4 times the solubility in octanol: octanol/0.2 mol phosphate buffer pH 7.4, 20° C.; for partitioning toward the octanol layer: octanol-phosphate, pH 7.4
Procedure: The partition coefficient in the octanol-phosphate buffer solution system, which is indicative of the degree of orientation toward nerve tissues, was determined. […] To the weighed samples 10 ml of 0.2 mol phosphate buffer (pH 7.4), defined in the Pharmacopoeia of Japan, and 10 ml of octanol were added. The mixtures were shaken for 24 hours at 20° C. under light shielding. Octanol and phosphate layers were partitioned to determine the absorbance of each layer. […] The partition coefficients obtained were averaged to determine the partition coefficient of each sample.

[5] = Acute toxicity test (LD50/14), i.v. or i.p.; settings: mouse, in vivo
Text: Test compounds, dissolved in physiological saline or a physiological saline solution containing 10% DMSO, were intravenously or intraperitoneally injected to ICR male mice, aged 5 weeks.

male ICR mice = settings: mouse, in vivo, iv
Procedure: The acute toxicity was determined using groups of male ICR mice, aged 5 weeks, each group consisting of five mice. Test compounds were dissolved in physiological saline and administered by injection through caudal vein. The death-survival determination was made 14 days after the administration.

[6] = physiological saline, read-out: Solubility in physiological saline
[7] = water, read-out: Solubility in water
[8] = pH 7.4, average of 1.4 times and 0.7 times, pH 7.4, 20° C., read-out: partition coefficient (converted)
[9] = pH 7.4, octanol/0.2 mol phosphate buffer pH 7.4, 20° C., 24 hours, 0.7 times, read-out: partition coefficient at 0.7 times the solubility in octanol (converted)
[10] = pH 7.4, octanol/0.2 mol phosphate buffer pH 7.4, 20° C., 24 hours, 1.4 times, read-out: partition coefficient at 1.4 times the solubility in octanol (converted)
[11] = intravenously or intraperitoneally, ICR male mice, 14 days

Row | Structure (SMILES) | solubility [1, 6] | solubility [1, 7] | Hypoxic cell sensitization rate [2] | Hypoxic cell survival rate [3] | logD at 24 h [4, 8] | logD at 24 h [4, 9] | logD at 24 h [4, 10] | solubilities compared with SR-RS racemate [1] | other results
1 | O=[N+]([O-])c1nccn1CO[C@H](CO)[C@@H](O)CO (relative stereo) [SR-RS racemate, (1'RS,2'SR)-1-[(2',3'-dihydroxy-1' -hydroxymethyl)propoxy]methyl-2-nitroimidazole] | 40 mg/mL (≈ 162 mM) | 40 mg/mL (≈ 162 mM) | 1.7 | 0.08% | -1.33 | -1.24 | -1.43 |  | hypoxic cell radiosensitization effect compared with misonidazole (hypoxic cell): about the same degree of hypoxic cell radiosensitization effect as misonidazole
2 | O=[N+]([O-])c1nccn1COC(CO)C(O)CO (single isomer, unassigned) [RS or SR isomer (rotation(+))] | 70 mg/mL (≈ 283 mM) |  | 1.7 | 0.08% |  |  |  |  | partition coefficient ([4]; pH 7.4, 20° C.): 0.056; partition coefficient at 0.7 times the solubility in octanol ([4]; 24 hours, 0.7 times): 0.059; partition coefficient at 1.4 times the solubility in octanol ([4]; 24 hours, 1.4 times): 0.053
3 | O=[N+]([O-])c1nccn1COC(CO)C(O)CO (single isomer, unassigned) [RS or SR isomer (rotation(-))] |  |  | 1.7 | 0.08% |  |  |  |  | Solubility in physiological saline ([1]; physiological saline): 0.06 g/ml; partition coefficient ([4]; pH 7.4, 20° C.): 0.053; partition coefficient at 0.7 times the solubility in octanol ([4]; 24 hours, 0.7 times): 0.058; partition coefficient at 1.4 times the solubility in octanol ([4]; 24 hours, 1.4 times): 0.048
4 | O=[N+]([O-])c1nccn1CO[C@H](CO)[C@@H](O)CO [Compound (3)] |  |  |  |  |  |  |  |  | LD50 at 336 h [5, 11]: 5900 mg/kg
5 | O=[N+]([O-])c1nccn1CO[C@@H](CO)[C@H](O)CO [Compound (4)] |  |  |  |  |  |  |  |  | LD50 at 336 h [5, 11]: 5900 mg/kg
6 | COCC(O)Cn1ccnc1[N+](=O)[O-] (stereo not drawn) [Misonidazole, reference compound] |  |  |  |  | -0.409 | -0.397 | -0.423 |  | 
7 | O=[N+]([O-])c1nccn1CO[C@H](CO)[C@H](O)CO [RR isomer, (1'R,2'R)-1-[(2', 3'-dihydroxy-1'-hydroxymethyl)propoxy]methyl-2-nitroimidazole] | 870 mg/mL (≈ 3520 mM) | 740 mg/mL (≈ 2990 mM) | 1.8 | 0.07% | -1.6 | -1.59 | -1.62 | remarkably larger than that of SR-RS racemate | LD50 at 336 h [5]: 6000 mg/kg; partitioning toward the octanol layer [4]: less partitioned toward the octanol layer
8 | O=[N+]([O-])c1nccn1CO[C@H](CO)[C@@H](O)CO [RS isomer] |  |  |  |  |  |  |  | remarkably larger than that of SR-RS racemate | 
9 | O=[N+]([O-])c1nccn1CO[C@@H](CO)[C@H](O)CO [SR isomer] |  |  |  |  |  |  |  | remarkably larger than that of SR-RS racemate | 
10 | O=[N+]([O-])c1nccn1CO[C@@H](CO)[C@@H](O)CO [SS isomer, (1'S,2'S)-1-[(2', 3'-dihydroxy-1'-hydroxymethyl)propoxy]methyl-2-nitroimidazole] | 820 mg/mL (≈ 3320 mM) | 850 mg/mL (≈ 3440 mM) | 1.8 | 0.07% | -1.55 | -1.51 | -1.59 | remarkably larger than that of SR-RS racemate | safety compared with other optically active isomers (male ICR mice): better safety than other optically active isomers; LD50 at 336 h [5]: 6000 mg/kg; partitioning toward the octanol layer [4]: less partitioned toward the octanol layer
